According to US9963445B2, “Chemical compounds” (SYNGENTA PARTICIPATIONS AG, priority 2013, dated 2018):

Tested on: Abutilon theophrasti
Assay: Pre-emergence herbicidal activity, glasshouse pot test
Type: in vivo
Conditions: pre-emergence spray, rate 1000 g/ha, evaluated after 13 days, scale 0-5
How it was run: (§1)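 Glasshouse conditions were 24/16 °C day/night with 14 h light and 65% humidity throughout. Soil was sprayed before emergence, one day after sowing, using an acetone/water (50:50) formulation with 0.5% Tween 20; injury was scored 0–5 after 13 days.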

| SMILES | ABUTH damage score, application pre-emergence |
| --- | --- |
| C#CCNC(=O)c1cnc(N2C(=O)C(OC)=C(C)C2O)cc1C(F)(F)F (stereo not drawn) [AI10] | 5 |
| COC1=C(C)C(O)N(c2cc(C(F)(F)F)c(C(=O)N(C)C)cn2)C1=O (stereo not drawn) [AI11] | 5 |
| COC1=C(C)C(O)N(c2cc(C(F)(F)F)c(C(=O)N(C)OC)cn2)C1=O (stereo not drawn) [AI12] | 5 |

Tested on: zea mays
Assay: as above
Type: in vivo
Conditions: pre-emergence spray, rate 1000 g/ha, evaluated after 13 days, scale 0-5
How it was run: as §1

| SMILES | ZEAMX damage score, application pre-emergence |
| --- | --- |
| C#CCNC(=O)c1cnc(N2C(=O)C(OC)=C(C)C2O)cc1C(F)(F)F (stereo not drawn) [AI10] | 4 |
| COC1=C(C)C(O)N(c2cc(C(F)(F)F)c(C(=O)N(C)C)cn2)C1=O (stereo not drawn) [AI11] | 4 |
| COC1=C(C)C(O)N(c2cc(C(F)(F)F)c(C(=O)N(C)OC)cn2)C1=O (stereo not drawn) [AI12] | 4 |

Tested on: Amaranthus retroflexus
Assay: as above
Type: in vivo
Conditions: pre-emergence spray, rate 1000 g/ha, evaluated after 13 days, scale 0-5
How it was run: as §1

| SMILES | AMARE damage score, application pre-emergence |
| --- | --- |
| C#CCNC(=O)c1cnc(N2C(=O)C(OC)=C(C)C2O)cc1C(F)(F)F (stereo not drawn) [AI10] | 5 |
| COC1=C(C)C(O)N(c2cc(C(F)(F)F)c(C(=O)N(C)C)cn2)C1=O (stereo not drawn) [AI11] | 5 |
| COC1=C(C)C(O)N(c2cc(C(F)(F)F)c(C(=O)N(C)OC)cn2)C1=O (stereo not drawn) [AI12] | 5 |

Tested on: Setaria faberi
Assay: as above
Type: in vivo
Conditions: pre-emergence spray, rate 1000 g/ha, evaluated after 13 days, scale 0-5
How it was run: as §1

| SMILES | SETFA damage score, application pre-emergence |
| --- | --- |
| C#CCNC(=O)c1cnc(N2C(=O)C(OC)=C(C)C2O)cc1C(F)(F)F (stereo not drawn) [AI10] | 5 |
| COC1=C(C)C(O)N(c2cc(C(F)(F)F)c(C(=O)N(C)C)cn2)C1=O (stereo not drawn) [AI11] | 4 |
| COC1=C(C)C(O)N(c2cc(C(F)(F)F)c(C(=O)N(C)OC)cn2)C1=O (stereo not drawn) [AI12] | 4 |

Tested on: Alopecurus myosuroides
Assay: as above
Type: in vivo
Conditions: pre-emergence spray, rate 1000 g/ha, evaluated after 13 days, scale 0-5
How it was run: as §1

| SMILES | ALOMY damage score, application pre-emergence |
| --- | --- |
| C#CCNC(=O)c1cnc(N2C(=O)C(OC)=C(C)C2O)cc1C(F)(F)F (stereo not drawn) [AI10] | 4 |
| COC1=C(C)C(O)N(c2cc(C(F)(F)F)c(C(=O)N(C)C)cn2)C1=O (stereo not drawn) [AI11] | 4 |
| COC1=C(C)C(O)N(c2cc(C(F)(F)F)c(C(=O)N(C)OC)cn2)C1=O (stereo not drawn) [AI12] | 4 |

Tested on: Echinochloa crus-galli
Assay: as above
Type: in vivo
Conditions: pre-emergence spray, rate 1000 g/ha, evaluated after 13 days, scale 0-5
How it was run: as §1

| SMILES | ECHCG damage score, application pre-emergence |
| --- | --- |
| C#CCNC(=O)c1cnc(N2C(=O)C(OC)=C(C)C2O)cc1C(F)(F)F (stereo not drawn) [AI10] | 5 |
| COC1=C(C)C(O)N(c2cc(C(F)(F)F)c(C(=O)N(C)C)cn2)C1=O (stereo not drawn) [AI11] | 4 |
| COC1=C(C)C(O)N(c2cc(C(F)(F)F)c(C(=O)N(C)OC)cn2)C1=O (stereo not drawn) [AI12] | 4 |

Tested on: Abutilon theophrasti
Assay: Post-emergence herbicidal activity, glasshouse pot test
Type: in vivo
Set-up: key: 0 = no damage to plant, 5 = total damage to plant
Conditions: Application post-emergence, rate 1000 g/ha, evaluated after 13 days
How it was run: (§2)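 Damage rated 0 (none) to 5 (total) 13 days after spraying. Plants were treated post-emergence at 8 days after sowing, using an acetone/water (50:50) formulation with 0.5% Tween 20 diluted to an aqueous spray.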

| SMILES | ABUTH herbicidal damage score |
| --- | --- |
| C#CCNC(=O)c1cnc(N2C(=O)C(OC)=C(C)C2O)cc1C(F)(F)F (stereo not drawn) [AI10] | 4 |
| COC1=C(C)C(O)N(c2cc(C(F)(F)F)c(C(=O)N(C)C)cn2)C1=O (stereo not drawn) [AI11] | 5 |
| COC1=C(C)C(O)N(c2cc(C(F)(F)F)c(C(=O)N(C)OC)cn2)C1=O (stereo not drawn) [AI12] | 5 |

Tested on: zea mays
Assay: as above
Type: in vivo
Set-up: key: 0 = no damage to plant, 5 = total damage to plant
Conditions: Application post-emergence, rate 1000 g/ha, evaluated after 13 days
How it was run: as §2

| SMILES | ZEAMX herbicidal damage score |
| --- | --- |
| C#CCNC(=O)c1cnc(N2C(=O)C(OC)=C(C)C2O)cc1C(F)(F)F (stereo not drawn) [AI10] | 5 |
| COC1=C(C)C(O)N(c2cc(C(F)(F)F)c(C(=O)N(C)C)cn2)C1=O (stereo not drawn) [AI11] | 4 |
| COC1=C(C)C(O)N(c2cc(C(F)(F)F)c(C(=O)N(C)OC)cn2)C1=O (stereo not drawn) [AI12] | 5 |

Tested on: Amaranthus retroflexus
Assay: as above
Type: in vivo
Set-up: key: 0 = no damage to plant, 5 = total damage to plant
Conditions: Application post-emergence, rate 1000 g/ha, evaluated after 13 days
How it was run: as §2

| SMILES | AMARE herbicidal damage score |
| --- | --- |
| C#CCNC(=O)c1cnc(N2C(=O)C(OC)=C(C)C2O)cc1C(F)(F)F (stereo not drawn) [AI10] | 5 |
| COC1=C(C)C(O)N(c2cc(C(F)(F)F)c(C(=O)N(C)C)cn2)C1=O (stereo not drawn) [AI11] | 5 |
| COC1=C(C)C(O)N(c2cc(C(F)(F)F)c(C(=O)N(C)OC)cn2)C1=O (stereo not drawn) [AI12] | 5 |

Tested on: Setaria faberi
Assay: as above
Type: in vivo
Set-up: key: 0 = no damage to plant, 5 = total damage to plant
Conditions: Application post-emergence, rate 1000 g/ha, evaluated after 13 days
How it was run: as §2

| SMILES | SETFA herbicidal damage score |
| --- | --- |
| C#CCNC(=O)c1cnc(N2C(=O)C(OC)=C(C)C2O)cc1C(F)(F)F (stereo not drawn) [AI10] | 5 |
| COC1=C(C)C(O)N(c2cc(C(F)(F)F)c(C(=O)N(C)C)cn2)C1=O (stereo not drawn) [AI11] | 5 |
| COC1=C(C)C(O)N(c2cc(C(F)(F)F)c(C(=O)N(C)OC)cn2)C1=O (stereo not drawn) [AI12] | 5 |

Tested on: Alopecurus myosuroides
Assay: as above
Type: in vivo
Set-up: key: 0 = no damage to plant, 5 = total damage to plant
Conditions: Application post-emergence, rate 1000 g/ha, evaluated after 13 days
How it was run: as §2

| SMILES | ALOMY herbicidal damage score |
| --- | --- |
| C#CCNC(=O)c1cnc(N2C(=O)C(OC)=C(C)C2O)cc1C(F)(F)F (stereo not drawn) [AI10] | 5 |
| COC1=C(C)C(O)N(c2cc(C(F)(F)F)c(C(=O)N(C)C)cn2)C1=O (stereo not drawn) [AI11] | 5 |
| COC1=C(C)C(O)N(c2cc(C(F)(F)F)c(C(=O)N(C)OC)cn2)C1=O (stereo not drawn) [AI12] | 5 |

Tested on: Echinochloa crus-galli
Assay: as above
Type: in vivo
Set-up: key: 0 = no damage to plant, 5 = total damage to plant
Conditions: Application post-emergence, rate 1000 g/ha, evaluated after 13 days
How it was run: as §2

| SMILES | ECHCG herbicidal damage score |
| --- | --- |
| C#CCNC(=O)c1cnc(N2C(=O)C(OC)=C(C)C2O)cc1C(F)(F)F (stereo not drawn) [AI10] | 5 |
| COC1=C(C)C(O)N(c2cc(C(F)(F)F)c(C(=O)N(C)C)cn2)C1=O (stereo not drawn) [AI11] | 5 |
| COC1=C(C)C(O)N(c2cc(C(F)(F)F)c(C(=O)N(C)OC)cn2)C1=O (stereo not drawn) [AI12] | 5 |
